In ChEMBL document CHEMBL1131990, “The design of potent, selective, non-covalent, peptide thrombin inhibitors utilizing imidazole as a S1 binding element” (Bioorg Med Chem Lett, 1999):

Key:
[1] = Anticoagulant activity for the compound by determining the concentration required to double the thrombin time.; assay type: functional
[2] = Anticoagulant activity for the compound by determining the concentration required to double the prothrombin time.; assay type: functional
[3] = molecular target: Prothrombin (Homo sapiens) (UniProt P00734); experiment: Inhibitory activity against the human alpha-thrombin
[4] = Anticoagulant activity for the compound by determining the concentration required to double the activated partial thromboplastin time.; assay type: functional
[5] = molecular target: Plasminogen (Homo sapiens) (UniProt P00747); experiment: Inhibitory activity against the human plasmin
Sequence of Plasminogen (Homo sapiens) (P00747 97-580 limits assumed): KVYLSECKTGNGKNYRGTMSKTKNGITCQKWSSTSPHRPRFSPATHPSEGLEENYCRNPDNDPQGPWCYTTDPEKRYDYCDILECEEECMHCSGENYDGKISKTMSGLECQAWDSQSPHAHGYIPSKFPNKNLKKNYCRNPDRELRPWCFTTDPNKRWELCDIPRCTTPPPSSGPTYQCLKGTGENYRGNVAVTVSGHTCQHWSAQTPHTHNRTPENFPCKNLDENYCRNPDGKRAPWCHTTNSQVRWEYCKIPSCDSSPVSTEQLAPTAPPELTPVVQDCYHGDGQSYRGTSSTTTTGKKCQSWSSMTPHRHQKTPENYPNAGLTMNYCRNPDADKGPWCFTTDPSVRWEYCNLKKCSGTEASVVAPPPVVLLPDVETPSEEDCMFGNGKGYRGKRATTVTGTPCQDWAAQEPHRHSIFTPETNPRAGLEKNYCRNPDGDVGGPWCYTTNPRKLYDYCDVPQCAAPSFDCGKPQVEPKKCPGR
Sequence of Plasminogen (Homo sapiens) (P00747 581-810 limits assumed): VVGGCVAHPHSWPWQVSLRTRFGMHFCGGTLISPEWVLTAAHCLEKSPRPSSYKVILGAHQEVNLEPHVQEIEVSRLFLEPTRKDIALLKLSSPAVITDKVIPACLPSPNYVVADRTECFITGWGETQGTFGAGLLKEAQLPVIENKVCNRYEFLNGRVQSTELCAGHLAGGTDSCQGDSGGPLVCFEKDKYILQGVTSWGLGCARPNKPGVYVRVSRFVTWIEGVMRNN

[6] = molecular target: Urokinase-type plasminogen activator (Homo sapiens) (UniProt P00749); experiment: Inhibitory activity against the human urokinase
[7] = molecular target: Serine protease 1 (Homo sapiens) (UniProt P07477); experiment: Inhibitory activity against the human trypsin
Sequence of Serine protease 1 (Homo sapiens) (P07477 whole entry): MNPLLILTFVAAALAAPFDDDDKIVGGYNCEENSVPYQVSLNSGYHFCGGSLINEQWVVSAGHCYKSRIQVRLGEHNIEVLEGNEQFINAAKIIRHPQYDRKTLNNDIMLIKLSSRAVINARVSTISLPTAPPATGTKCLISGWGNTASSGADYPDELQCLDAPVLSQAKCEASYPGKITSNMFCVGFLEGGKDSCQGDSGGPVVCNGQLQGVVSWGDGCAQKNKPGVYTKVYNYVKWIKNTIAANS

[8] = molecular target: Tissue-type plasminogen activator (Homo sapiens) (UniProt P00750); experiment: Inhibitory activity against the human tissue plasminogen activator
Sequence of Tissue-type plasminogen activator (Homo sapiens) (P00750 36-562 limits assumed): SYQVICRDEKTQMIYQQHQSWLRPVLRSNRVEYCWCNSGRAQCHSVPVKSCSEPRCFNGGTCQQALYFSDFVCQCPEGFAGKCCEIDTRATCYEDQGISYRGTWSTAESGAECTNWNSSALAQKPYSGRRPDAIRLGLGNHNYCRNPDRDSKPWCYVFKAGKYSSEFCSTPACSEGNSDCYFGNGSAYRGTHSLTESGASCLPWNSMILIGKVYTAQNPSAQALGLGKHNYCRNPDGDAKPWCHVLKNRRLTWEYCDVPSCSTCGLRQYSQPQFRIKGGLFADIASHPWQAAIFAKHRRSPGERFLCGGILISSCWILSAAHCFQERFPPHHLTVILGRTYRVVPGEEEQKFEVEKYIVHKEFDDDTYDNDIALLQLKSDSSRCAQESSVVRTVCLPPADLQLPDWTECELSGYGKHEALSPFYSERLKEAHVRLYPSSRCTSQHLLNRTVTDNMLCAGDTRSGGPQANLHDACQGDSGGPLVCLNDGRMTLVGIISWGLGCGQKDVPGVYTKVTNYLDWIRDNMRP

[9] = molecular target: Vitamin K-dependent protein C (Homo sapiens) (UniProt P04070); experiment: Inhibitory activity against the human activated protein C
Sequence of Vitamin K-dependent protein C (Homo sapiens) (P04070 43-197 limits assumed): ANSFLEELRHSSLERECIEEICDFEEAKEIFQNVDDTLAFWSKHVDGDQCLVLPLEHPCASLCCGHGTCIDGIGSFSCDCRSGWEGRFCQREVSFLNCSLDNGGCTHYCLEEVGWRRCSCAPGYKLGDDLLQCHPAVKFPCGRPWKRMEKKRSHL
Sequence of Vitamin K-dependent protein C (Homo sapiens) (P04070 212-461 limits assumed): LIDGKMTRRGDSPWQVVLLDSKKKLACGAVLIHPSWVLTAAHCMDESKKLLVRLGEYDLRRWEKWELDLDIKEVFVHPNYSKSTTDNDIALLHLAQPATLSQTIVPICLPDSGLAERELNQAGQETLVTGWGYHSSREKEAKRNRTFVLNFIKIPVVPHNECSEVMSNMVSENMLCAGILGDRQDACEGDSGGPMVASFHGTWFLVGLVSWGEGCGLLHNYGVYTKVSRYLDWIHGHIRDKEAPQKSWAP

[10] = molecular target: Vitamin K-dependent protein C (Homo sapiens) (UniProt P04070); experiment: Inhibitory activity against the activated human protein C

Row | K ass [3] | K ass [5] | K ass [6] | K ass [7] | K ass [8] | K ass [9] | K ass [10] | Structure (SMILES) | Concentration [1] [ng/mL] | Concentration [2] [ng/mL] | Concentration [4] [ng/mL]
1 | 1e+08 l M-1 | < 10000 l M-1 | < 10000 l M-1 | 290000 l M-1 | < 10000 l M-1 | 20000 l M-1 |  | O=C(O)CN[C@H](CC1CCCCC1)C(=O)N1CCC[C@H]1C(=O)NCCCc1c[nH]cn1 | 20 | 380 | 170
2 | 2.3e+07 l M-1 |  |  |  |  |  |  | Cc1[nH]cnc1CCCNC(=O)[C@@H]1CCCN1C(=O)[C@H](N)CC1CCCCC1 |  |  | 
3 | 8.4e+07 l M-1 |  |  |  |  |  |  | O=C(O)CN[C@H](CC1CCCCC1)C(=O)N1CCC[C@H]1C(=O)NC/C=C/c1c[nH]cn1 |  |  | 
4 | 3.4e+07 l M-1 | < 10000 l M-1 | < 10000 l M-1 | 40000 l M-1 | < 10000 l M-1 | 10000 l M-1 |  | N[C@H](CC1CCCCC1)C(=O)N1[C@H](C(=O)NCCCc2c[nH]cn2)C[C@@H]2CCCC[C@@H]21 | 61 | 700 | 470
5 | 6.7e+08 l M-1 | 1.5e+06 l M-1 | 40000 l M-1 | 91 l M-1 |  |  | 300000 l M-1 | CN[C@H](Cc1ccccc1)C(=O)N1CCC[C@H]1C(=O)N[C@H](C=O)CCCNC(=N)N | 41 | 1000 | 930
6 | 4.4e+06 l M-1 |  |  |  |  |  |  | N[C@H](CC1CCCCC1)C(=O)N1CCC[C@H]1C(=O)NCCc1c[nH]cn1 |  |  | 
7 | 7e+06 l M-1 |  |  |  |  |  |  | N[C@H](CC1CCCCC1)C(=O)N1[C@H](C(=O)NC/C=C/c2c[nH]cn2)C[C@@H]2CCCC[C@@H]21 |  |  | 
8 | 3e+07 l M-1 | 10000 l M-1 | < 10000 l M-1 | 260000 M⁻¹ | 11000 l M-1 |  | 10000 l M-1 | NC(N)=NCCCCNC(=O)[C@@H]1CCCN1C(=O)[C@H](N)CC1CCCCC1 | 44 | 770 | 490
9 | 1.3e+06 l M-1 |  |  |  |  |  |  | N[C@H](CC1CCCCC1)C(=O)N1CCC[C@H]1C(=O)NCCCCc1c[nH]cn1 |  |  | 
10 | 2e+07 l M-1 | < 10000 l M-1 | < 10000 l M-1 | 10000 l M-1 | < 10000 l M-1 | < 10000 l M-1 |  | N[C@H](CC1CCCCC1)C(=O)N1CCC[C@H]1C(=O)NCCCc1c[nH]cn1 | 74 | 1000 | 660
11 | 1.6e+07 l M-1 |  |  |  |  |  |  | N[C@H](CC1CCCCC1)C(=O)N1CCC[C@H]1C(=O)NC/C=C/c1c[nH]cn1 |  |  | 
